Data reported in US20130115256A1, “METHODS FOR TREATING OR PREVENTING VASCULAR GRAFT FAILURE” (priority 2010, published 2013).

How the values were obtained:
[1] = system: human saphenous vein (HSV); assay: Sodium nitroprusside-induced relaxation of human saphenous vein in muscle bath; conditions: control peptide 50 or 100 μM; data not shown
Description: In preparation for testing vein segment functional viability, HSV rings were weighed and their lengths recorded. To focus on smooth muscle responses, the endothelium was mechanically denuded by rolling the luminal surface of each ring at the tip of a fine vascular forceps before suspension in a muscle bath containing a bicarbonate buffer (120 mM NaCl, 4.7 mM KCl, 1.0 mM MgSO4, 1.0 mM NaH2PO4, 10 mM glucose, 1.5 mM CaCl2, and 25 mM […], pH 7.4) equilibrated with 95% O2 and 5% CO2 at 37° C. The rings were stretched and the length progressively adjusted until maximal tension was obtained. Normalized reactivity was obtained by determining the passive length-tension relationship for each vessel segment. Rings were maintained at a resting tension of 1 g, which produces maximal responses to contractile agonists as previously determined, and equilibrated for 2 hours in buffer. Force measurements were obtained using a Radnoti Glass Technology (Monrovia, Calif.) force transducer (159901A) interfaced with a Powerlab data acquisition system and Chart software (AD Instruments, Colorado Springs, Colo.).
HSV rings were first contracted with 110 mM KCl (with equimolar replacement of NaCl in bicarbonate buffer) and the generated force was measured. 110 mM KCl causes membrane depolarization, leading to contraction of vessels containing functionally viable smooth muscle. After multiple KCl challenges, rings were washed and allowed to equilibrate in bicarbonate solution for 30 min, and then contracted with phenylephrine (PE, 10^−7-10^−6 M). Rings were relaxed with a cumulative log dose of sodium nitroprusside (SNP), a nitric oxide donor, and the force generated was recorded. All rings were again washed and equilibrated in buffer for 15 minutes. Rings were then incubated with either buffer alone or buffer plus 100 μM of MMI-0100 ([…] (SEQ ID NO: 1)) for 2 hours, followed by treatment with the same doses of PE and SNP, and the forces generated again recorded. Measured force was normalized for ring weight and length and percent relaxation was calculated; force generated with 10^−6M of PE was set as 0% relaxation.
The enhancing effect of MMI-0100 ([…]; SEQ ID NO: 1) on smooth muscle relaxation was examined by pre-treating harvested human saphenous vein (HSV) with MMI-0100 ([…]; SEQ ID NO: 1) before SNP treatment. Segments of human saphenous vein (HSV) were equilibrated in a muscle bath and pretreated with a control solution (0.01M phosphate-buffered solution, PBS) or MMI-0100 ([…] (SEQ ID NO: 1); 30 μM, 2 hrs), contracted with norepinephrine. and relaxed with increasing doses of sodium nitroprusside (SNP, 0-1 μM). Percentage of relaxation at 0, 0.01, 0.1, and 1.0 μM of SNP was measured. […]

[2] = system: immortalized human pleural mesothelial cells (ATCC CRL-9444); assay: TNF-α-induced IL-6 expression in mesothelial cells (ELISA); type: cell-based
Excerpt: In order to examine the efficacy of MMI-0100 ([…]; SEQ ID NO: 1) in inhibiting the production of inflammatory cytokines, an inflammatory response was triggered in vitro by applying TNF-α to immortalized human pleural mesothelial cells (ATCC CRL-9444). A mesothelial cell is a cell type that forms a monolayer of specialized pavement-like cells (mesothelium) that lines the body's abdominal cavities and internal organs. The primary function of this layer, the mesothelium, is to provide a slippery, non-adhesive, and protective surface. Mesothelial cells also are involved in transport of fluid and cells across the peritoneal (abdominal) cavities, antigen presentation, inflammation, tissue repair, coagulation, and tumor cell adhesion. It is well known that mesothelial cells play important role in the peritoneal inflammatory response. In response to bacterial products and macrophage-derived inflammatory cytokines (e.g., TNF-α), mesothelial cells produce Interleukin-1 (IL-1), Interleukin-6 (IL-6), and Interleukin-8 (IL-8), thus amplifying the inflammatory signals and recruiting leukocytes into the infected abdominal cavity.
Expression of inflammatory cytokines was induced by applying 1 or 10 ng/ml of TNF-α to cultured mesothelial cells. Briefly, immortalized human pleural mesothelial cells (ATCC CRL-9444) were grown in Medium199 with Earle's BSS, 0.75 mM L-glutamine (Mediatech Inc., Manassas, Va.), 1.25 g/l sodium bicarbonate (Sigma), 3.3 nM epidermal growth factor (EGF) (MBL International, Woburn, Mass.), 40 nM hydrocortisone (Sigma), 870 nM insulin (MBL International), 20 mM HEPES (Sigma), trace elements mixture B (Mediatech Inc., Waltham, Mass.), 10% fetal bovine serum (FBS) (Hyclone), and 1% penicillin/streptomycin (Mediatech Inc., Waltham, Mass.). […] Human mesothelial cells were treated with two different concentrations (1 and 10 ng/mL) of TNF-α for 2, 6, 12, and 24 hours (data not shown). […] Without TNF-α stimulation, mesothelial cells made negligible amounts of IL-6. […] In subsequent experiments designed to determine whether the MMI-0100 peptide ([…]; SEQ ID NO: 1) could reduce TNF-α induced IL-6 expression, both 1 and 10 ng/mL of TNF-α were selected as stimuli. 10 ng/mL of TNF-α is regarded as more physiologically relevant for mesothelial cells.
Prior to cytokine and/or inhibitor treatment, cells were allowed to acclimate in serum-free media consisting of only Medium 199 with Earle's BSS, 0.75 mM L-glutamine, 1.25 g/l sodium bicarbonate, 20 mM HEPES, trace elements mixture B (Mediatech Inc., Waltham, Mass.), and 1% penicillin/streptomycin (Mediatech Inc., Waltham, Mass.) for 24 hours. After the adapting period, cytokines (TNF-α and IL-1β) with or without MMI-0100 peptide or Rottlerin (Tocris Bioscience, Ellisville, Mo.; IC50=5 μM) were added to the media in order to compare the efficacy of MMI-0100 ([…]; SEQ ID NO: 1) with that of Rottlerin. Specifically, serum-starved mesothelial cells were treated with two different concentrations (1000 μM or 3000 μM) of MMI-0100 ([…] (SEQ ID NO: 1)) at three different time points (6 hours, 12 hours, and 24 hours) using two different concentrations of TNF-α (1 ng/ml or 10 ng/ml) or using 1 ng/ml of IL-1β. Average concentration of IL-6 (pg/ml per 10^5 cells) at each time was determined by cytokine-specific ELISA.

Row | Compound | relaxation response compared to untreated control [1] | IL-6 expression compared with TNF-α alone ([2]; 1 ng/mL TNF-α, 6 hrs, Rottlerin) | IL-6 expression ([2]; 1 ng/mL TNF-α, Rottlerin) | IL-6 expression ([2]; 10 ng/mL TNF-α, Rottlerin 1 μM, twenty-four hours)
1 | YARAAARQARA (mammal) [PTD peptide, control peptide (transduction domain, PTD peptide), reference compound] | no significant difference | – | – | –
2 | CC(=O)c1c(O)c(C)c(O)c(Cc2c(O)c3c(c(C(=O)/C=C/c4ccccc4)c2O)OC(C)(C)C=C3)c1O [Rottlerin, reference compound] | – | significantly increased | ineffective | reduced IL-6 expression
